From patent US8383683B2, “Pharmaceutical use of substituted amides” (High Point Pharmaceuticals, LLC, priority 2007, dated 2013) come the findings set out here.

For this experiment, the target named is 11βHSD1 (Homo sapiens, UniProt P28845). Briefly: 11βHSD1 enzyme assay (SPA, 3H-cortisone to 3H-cortisol). The experiment is classed as biochemical. The arrangement: An extract of yeast transformed with h-11βHSD1 (Hutt et al., FEBS Lett., 441, 25 (1998)) was used as the source of enzyme; made in house. The settings on record: extract of yeast transformed with h-11βHSD1; 120 nM 3H-cortisone, 4 mM β-NADPH, 60 min at 30° C. As to the method: Pharmacological Methods 11βHSD1 Enzyme Assay Materials
11βHSD1, sequence (P28845 whole entry): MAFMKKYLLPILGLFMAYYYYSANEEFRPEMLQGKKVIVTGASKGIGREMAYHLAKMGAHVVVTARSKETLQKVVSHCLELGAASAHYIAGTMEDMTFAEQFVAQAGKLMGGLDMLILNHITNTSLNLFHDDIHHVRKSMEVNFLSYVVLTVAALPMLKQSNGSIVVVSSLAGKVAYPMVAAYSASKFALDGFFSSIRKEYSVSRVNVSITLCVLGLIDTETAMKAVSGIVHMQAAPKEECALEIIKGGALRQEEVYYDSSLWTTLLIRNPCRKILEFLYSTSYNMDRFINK
^3H-cortisone and anti-rabbit Ig coated scintillation proximity assay (SPA) beads were purchased from Amersham Pharmacia Biotech, β-NADPH was from Sigma and rabbit anti-cortisol antibodies were from Fitzgerald. An extract of yeast transformed with h-11βHSD1 (Hutt et al., FEBS Lett., 441, 25 (1998)) was used as the source of enzyme. The test compounds were dissolved in DMSO (10 mM). All dilutions were performed in a buffer containing 50 mM TRIS-HCl (Sigma Chemical Co), 4 mM EDTA (Sigma Chemical Co), 0.1% BSA (Sigma Chemical Co), 0.01% Tween-20 (Sigma Chemical Co) and 0.005% bacitracin (Novo Nordisk NS), pH=7.4. Optiplate 96 wells plates were supplied by Packard. The amount of ^3H-cortisol bound to the SPA beads was measured on TopCount NXT, Packard.
h-11βHSD1, 120 nM ^3H-cortisone, 4 mM β-NADPH, antibody (1:200), serial dilutions of test compound and SPA particles (2 mg/well) were added to the wells. The reaction was initiated by mixing the different components and was allowed to proceed under shaking for 60 min at 30° C. The reaction was stopped be the addition of 10 fold excess of a stopping buffer containing 500 μM carbenoxolone and 1 μM cortisone. Data was analysed using GraphPad Prism software.
What is called IC50 is the concentration that gives 50% inhibition. The compound `O=C(CCCOc1ccc(Cl)cc1Cl)N[C@@]12C[C@@H]3C[C@@H](C[C@@](O)(C3)C1)C2` [Example 1-1, 4-(2,4-Dichloro-phenoxy)-N-((1R,3S,5R,7S)-3-hydroxy-adamantan-1-yl)-butyramide] returned an IC50 of 27 nM. Then `O=C(CCCOc1ccc(Cl)cc1Cl)NC(c1ccccc1)C1CC1` (stereo not shown) [Example 1-3, N-(Cyclopropyl-phenyl-methyl)-4-(2,4-dichloro-phenoxy)-butyramide], with 405 nM. Take `O=C(CCCOc1ccc(Cl)cc1Cl)N1CCCCC1c1ccccc1Cl` (stereo not shown) [Example 1-4, 1-[2-(2-Chloro-phenyl)-piperidin-1-yl]-4-(2,4-dichloro-phenoxy)-butan-1-one]: the IC50 stood at 296 nM. In turn, `O=C(CCCOc1ccc(Cl)cc1Cl)N1CCCCC1c1ccccc1` (stereo not shown) [Example 1-10, 4-(2,4-Dichloro-phenoxy)-1-(2-phenyl-piperidin-1-yl)-butan-1-one] displayed an IC50 of 201 nM. In turn, `CC1(C)[C@H]2CC[C@@H](CNC(=O)CCCOc3ccc(Cl)cc3Cl)[C@@H]1C2` [Example 1-11, 4-(2,4-Dichloro-phen-oxy)-N-((1S,2R,5S)-6,6-dimethyl-bicyclo[3.1.1]-hept-2-ylmethyl)-butyr-amide] registered an IC50 of 271 nM. Then `O=C(CCCOc1ccc(Cl)cc1Cl)N1CC2CCC(CC2)C1` [Example 1-15, 1-(3-Aza-bicyclo[3.2.2]-non-3-yl)-4-(2,4-di-chloro-phenoxy)-butan-1-one], with 52 nM; and `COC(=O)C1CC2CCC(C1)N2C(=O)CCCOc1ccc(Cl)cc1Cl` (stereo not shown) [Example 1-17, 8-[4-(2,4-Dichloro-phenoxy)-butyryl]-8-aza-bicyclo[3.2.1]octane-3-carboxylic acid methyl ester], with 7 nM.

In the case of `O=C(CCCOc1ccc(Cl)cc1Cl)N(C1CC1)C1C2CC3CC1CC(O)(C3)C2` (stereo not shown) [Example 1-18, N-Cyclopropyl-4-(2,4-dichloro-phenoxy)-N-(5-hydroxy-adamantan-2-yl)-butyramide], the IC50 worked out at 209 nM.

For `O=C(CCCOc1ccc(Cl)cc1Cl)N(C1CC1)C1C2CC3CC1CC(O)(C3)C2` (stereo not shown) [Example 1-19, N-Cyclopropyl-4-(2,4-dichloro-phenoxy)-N-(5-hydroxy-adamantan-2-yl)-butyramide], the IC50 turned out to be 24 nM.

In turn, `O=C(CCCOc1ccc(Cl)cc1Cl)NC12CC3CC(C1)CC(C(=O)O)(C3)C2` [Example 1-20, 3-[4-(2,4-Dichloro-phenoxy)-butyrylamino]-adamantane-1-carboxylic acid] registered an IC50 of 13 nM. Then `O=C(CCCOc1ccc(Cl)cc1Cl)NC1C2CC3CC(C2)C(CO)C1C3` (stereo not shown) [Example 1-21, 4-(2,4-Dichloro-phenoxy)-N-(4-hydroxy-methyl-adamantan-2-yl)-butyramide], with 1 nM; and `O=C(CCCOc1ccc(Cl)cc1Cl)N1CC2CC3CC1CC(O)(C3)C2` (stereo not shown) [Example 1-22, 4-(2,4-Dichloro-phenoxy)-1-(1-hydroxy-4-aza-tricyclo-[4.3.1.1{3,8}]undec-4-yl)-butan-1-one], with 6 nM. Then `O=C(CCCOc1ccc(Cl)cc1Cl)N1CC2CC(O)C1C2` (stereo not shown) [Example 1-23, 4-(2,4-Dichloro-phenoxy)-1-(6-hydroxy-2-aza-bicyclo[2.2.1]hept-2-yl)-butan-1-one], with 151 nM. Then `O=C(CCCOc1ccc(Cl)cc1Cl)N1CC2CC1CC2O` (stereo not shown) [Example 1-24, 4-(2,4-Dichloro-phenoxy)-1-(5-hydroxy-2-aza-bicyclo[2.2.1]hept-2-yl)-butan-1-one], with 20 nM. Turning to `O=C(CCCOc1ccc(Cl)cc1Cl)N1CC2CC(O)CC1C2` (stereo not shown) [Example 1-25, 4-(2,4-Dichloro-phenoxy)-1-(3-hydroxy-6-aza-bicyclo[3.2.1]oct-6-yl)-butan-1-one], the 50% inhibitory concentration (IC50) is 185 nM. In turn, `CN(C(=O)CCCOc1ccc(Cl)cc1Cl)C1CCC(O)CC1` (stereo not shown) [Example 1-26, 4-(2,4-Dichloro-phenoxy)-N-(4-hydroxy-cyclohexyl)-N-methyl-butyramide] returned an IC50 of 21 nM.
